Publication PMC5613053 (Investigational New Drugs, 2017)

What was measured:
FLT3 = FLT3 (Homo sapiens, UniProt P36888); test: biochemical; settings: read-out: Inhibition of kinase activity
Protocol: These assays were conducted according to the manufacturer’s instructions. […] TK-ELISA and MSA assays were used to conduct IC50 studies for FLT3, LTK, AXL, and c-KIT; the HTRF® KinEASE™-TK assay (Sceti Medical Labo, Tokyo, Japan) was performed according to the manufacturer’s protocol to assess the IC50 value of echinoderm microtubule-associated protein-like 4-ALK (EML4-ALK; three individual experiments for each kinase).

LTK = target: T1, LTK (Homo sapiens, UniProt P29376); test: Kinase inhibitory assay (TK-ELISA / off-chip MSA); assay type: biochemical
T1 construct: purchased Carna Biosciences, Inc
T1 sequence (P29376 17-864): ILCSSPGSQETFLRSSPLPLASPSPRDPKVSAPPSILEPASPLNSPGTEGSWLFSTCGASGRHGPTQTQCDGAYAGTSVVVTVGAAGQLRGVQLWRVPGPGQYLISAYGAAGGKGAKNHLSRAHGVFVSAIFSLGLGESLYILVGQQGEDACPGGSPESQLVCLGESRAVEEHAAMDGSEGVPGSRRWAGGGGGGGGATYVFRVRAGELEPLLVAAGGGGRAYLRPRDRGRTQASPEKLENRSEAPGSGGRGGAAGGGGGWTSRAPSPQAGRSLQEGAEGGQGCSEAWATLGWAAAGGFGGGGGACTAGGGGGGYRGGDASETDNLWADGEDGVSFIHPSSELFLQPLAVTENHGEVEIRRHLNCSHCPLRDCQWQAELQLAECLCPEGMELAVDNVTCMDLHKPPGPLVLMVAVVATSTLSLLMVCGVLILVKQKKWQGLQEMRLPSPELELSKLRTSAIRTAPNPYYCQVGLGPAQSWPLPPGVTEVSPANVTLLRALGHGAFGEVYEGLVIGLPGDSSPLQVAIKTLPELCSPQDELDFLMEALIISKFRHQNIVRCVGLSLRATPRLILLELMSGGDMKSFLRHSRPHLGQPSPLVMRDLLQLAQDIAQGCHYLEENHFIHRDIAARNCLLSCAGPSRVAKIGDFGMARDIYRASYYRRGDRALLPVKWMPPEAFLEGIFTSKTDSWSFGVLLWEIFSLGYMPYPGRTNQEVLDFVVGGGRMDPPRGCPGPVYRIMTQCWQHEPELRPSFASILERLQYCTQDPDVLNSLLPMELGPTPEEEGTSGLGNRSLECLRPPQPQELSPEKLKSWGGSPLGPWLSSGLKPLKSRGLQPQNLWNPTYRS

AXL = target: T2, AXL (Homo sapiens, UniProt P30530); test: Kinase inhibitory assay (TK-ELISA / off-chip MSA); assay type: biochemical; settings: 1 nM; single experiment
T2 construct: purchased Carna Biosciences, Inc

[1] = system: parental Ba/F3 cells in the presence of IL-3; test: CellTiter-Glo cell viability, off-target; assay type: cell-based; settings: Mus musculus, BaF3, 48 h; IL-3 present; 2 days of treatment; off-target inhibition; read-out: Cell growth inhibition IC50
Protocol: A detailed protocol is provided in the online resource.
The assay was performed in either triplicate or quadruplicate. […] The geometric mean was calculated from three individual experiments.

phosphorylated AXL = target: T3, phosphorylated AXL (Homo sapiens, UniProt P30530); test: Immunoblot of phospho-AXL in MV4-11-AXL cells; assay type: cell-based; settings: 4 h, MV4–11 cells expressing exogenous AXL
T3 construct: expressed in transfected cells; host or cells: MV4-11-AXL cells (MV4-11 exogenously expressing AXL)
T3 sequence (P30530 26-894): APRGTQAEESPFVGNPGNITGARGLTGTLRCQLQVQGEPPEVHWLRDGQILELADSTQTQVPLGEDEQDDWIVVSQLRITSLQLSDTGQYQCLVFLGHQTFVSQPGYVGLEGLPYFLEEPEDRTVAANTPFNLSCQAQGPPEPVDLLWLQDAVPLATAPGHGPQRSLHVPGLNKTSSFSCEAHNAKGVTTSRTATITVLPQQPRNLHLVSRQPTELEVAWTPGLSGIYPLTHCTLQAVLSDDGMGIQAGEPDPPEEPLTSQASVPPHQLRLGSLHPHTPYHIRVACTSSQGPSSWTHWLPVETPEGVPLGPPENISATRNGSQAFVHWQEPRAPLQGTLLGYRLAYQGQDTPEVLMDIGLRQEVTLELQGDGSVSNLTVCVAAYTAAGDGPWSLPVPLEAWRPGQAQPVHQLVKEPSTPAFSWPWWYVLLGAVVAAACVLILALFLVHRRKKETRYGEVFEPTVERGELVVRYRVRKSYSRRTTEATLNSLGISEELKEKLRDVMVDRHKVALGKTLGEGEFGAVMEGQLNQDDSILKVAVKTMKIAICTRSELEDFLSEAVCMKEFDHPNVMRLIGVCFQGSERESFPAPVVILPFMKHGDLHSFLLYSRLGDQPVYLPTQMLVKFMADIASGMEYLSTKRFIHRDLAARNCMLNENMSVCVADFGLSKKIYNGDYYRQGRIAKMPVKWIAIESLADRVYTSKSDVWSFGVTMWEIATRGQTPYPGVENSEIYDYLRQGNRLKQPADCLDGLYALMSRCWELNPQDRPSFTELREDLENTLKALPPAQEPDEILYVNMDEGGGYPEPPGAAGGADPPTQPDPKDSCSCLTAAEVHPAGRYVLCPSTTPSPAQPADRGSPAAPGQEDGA
Protocol: Cells were treated for 4 h prior to cell lysate preparation in RIPA buffer supplemented with phosphatase / protease inhibitors. The protein lysates were subsequently electrophoresed on 7.5% gels and transferred to PVDF membranes.
All membranes were blocked using either Blocking One or Blocking One-P (Nacalai Tesque Inc., Kyoto, Japan) for 1 h prior to an overnight incubation with primary antibody. Membranes were incubated overnight at 4°C with one of the following antibodies: anti-FLT3 antibody (Abcam), anti-phosphorylated pan-tyrosine, anti-ERK, anti-phospho-ERK, anti-STAT5, anti-phospho-STAT5, anti-AKT, anti-phospho-AKT, anti-AXL, anti-phospho-AXL, or anti-actin. The membranes were then washed with 1× TBS Tween-20 (TBS-T) Buffer (Thermo Fisher Scientific Inc., Rockford, IL) and incubated with an appropriate HRP-linked secondary antibody (Cell Signaling Technology) for 1 h at room temperature. After a final wash, ECL Western Blotting Detection Reagent ECL-prime (GE Healthcare, Fairfield, CT) were applied to the membranes and signals were detected with a CCD camera (ImageQuant LAS4000; GE Healthcare). Signal intensity was then quantified using ImageQuant™ TL software (GE Healthcare). The study was performed once in triplicate, and the mean percentage of phosphorylated protein to total protein relative to that in vehicle-treated cells was calculated.
Fig. S1. […] Protein lysates were collected in RIPA buffer and immunoblotting was performed to detect both phosphorylated and total levels of AXL (triplicate).

[2] = Body weight in MV4–11 xenograft study; assay type: in vivo, mice; settings: 1–10 mg/kg/day oral, 28 days; any tested dose
Protocol: (§1) Once tumor growth had been confirmed, mice xenografted with MV4–11 cells were monitored for 28 days; mice xenografted with Ba/F3 cells expressing FLT3 mutations were monitored for 7 days. Tumor diameter was measured using a caliper, and tumor volume was determined by calculating the volume of an ellipsoid using the formula: length × width^2 × 0.5. Body weight was measured using a standard balance. Data are expressed as mean ± SEM from n = 6 mice/group (MV4–11) and n = 5 mice/group (Ba/F3).
(§2) After tumor establishment, mice were divided into groups such that the mean tumor volume was approximately equal in each group.

[3] = system: Ba/F3 cells expressing FLT3-ITD; test: Ba/F3 FLT3-ITD subcutaneous xenograft; assay type: in vivo, mice; settings: up to 7 days
Protocol: as §1, §2

[4] = system: Ba/F3 cells expressing FLT3-D835Y; test: Ba/F3 FLT3-D835Y subcutaneous xenograft; assay type: in vivo, mice; settings: up to 7 days
Protocol: as §1, §2

Sequence of FLT3 (P36888 27-993): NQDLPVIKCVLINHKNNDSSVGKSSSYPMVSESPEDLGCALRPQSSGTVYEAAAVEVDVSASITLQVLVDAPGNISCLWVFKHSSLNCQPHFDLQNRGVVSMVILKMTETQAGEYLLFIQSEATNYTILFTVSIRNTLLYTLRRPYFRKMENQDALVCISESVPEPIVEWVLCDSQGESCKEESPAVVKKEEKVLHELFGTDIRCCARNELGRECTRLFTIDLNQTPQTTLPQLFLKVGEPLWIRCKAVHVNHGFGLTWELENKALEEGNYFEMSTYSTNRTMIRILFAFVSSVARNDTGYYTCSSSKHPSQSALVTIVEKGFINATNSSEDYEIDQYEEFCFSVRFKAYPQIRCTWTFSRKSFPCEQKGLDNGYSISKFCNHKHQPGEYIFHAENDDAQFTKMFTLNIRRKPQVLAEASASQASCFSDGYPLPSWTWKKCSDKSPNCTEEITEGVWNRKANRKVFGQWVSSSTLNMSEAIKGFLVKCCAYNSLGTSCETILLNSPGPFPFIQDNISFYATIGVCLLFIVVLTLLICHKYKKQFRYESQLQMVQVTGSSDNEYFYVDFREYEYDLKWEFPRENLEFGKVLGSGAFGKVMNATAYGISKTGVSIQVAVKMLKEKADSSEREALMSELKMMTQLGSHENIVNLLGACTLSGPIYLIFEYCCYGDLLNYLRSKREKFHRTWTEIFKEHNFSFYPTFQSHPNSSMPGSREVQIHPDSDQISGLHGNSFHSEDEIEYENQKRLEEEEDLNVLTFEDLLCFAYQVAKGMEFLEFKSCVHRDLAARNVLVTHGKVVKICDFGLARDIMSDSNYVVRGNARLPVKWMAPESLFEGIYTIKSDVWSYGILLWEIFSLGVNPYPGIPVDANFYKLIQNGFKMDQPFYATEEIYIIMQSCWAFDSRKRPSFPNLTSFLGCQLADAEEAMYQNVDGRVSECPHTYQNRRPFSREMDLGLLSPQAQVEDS

CCc1nc(C(N)=O)c(Nc2ccc(N3CCC(N4CCN(C)CC4)CC3)c(OC)c2)nc1NC1CCOCC1 [gilteritinib]
inhibition at 0.001 µM (FLT3): > 50%
IC50 (LTK): 0.35 nM
inhibition at 0.001 µM (LTK; 1 nM, single experiment): > 50%
inhibition at 0.001 µM (AXL): > 50%
IC50 [1]: 420 nM
Decrease of phosphorylated AXL levels (phosphorylated AXL; 1 nM): 38%
Decrease of phosphorylated AXL levels (phosphorylated AXL; 10 nM): 29%
Decrease of phosphorylated AXL levels (phosphorylated AXL; 100 nM): 22%
Body weight [2]: not affected
Antitumor effect (tumor volume) ([3]; 10 mg/kg once-daily oral): showed antitumor efficacy
Antitumor effect (tumor volume) ([3]; 30 mg/kg once-daily oral): induced tumor regression
Antitumor effect (tumor volume) ([4]; 10 mg/kg once-daily oral): showed antitumor efficacy
Antitumor effect (tumor volume) ([4]; 30 mg/kg once-daily oral): induced tumor regression
